The source of these data is patent US20100184638A1, “Galanin Receptors and Brain Injury” (NeuroTargets, Ltd., priority 2004, published 2010).

In experiment [1] the test system is GALR1 and GALR2. The conditions noted are these: cited from earlier work.
For experiment [2], the system named is organotypic hippocampal cultures. Nature of the experiment: Staurosporine-induced cell death in organotypic hippocampal cultures (propidium iodide). It counts as cell-based, mouse. The conditions noted are these: for percentage cell death: n=4. The procedure:
Organotypic cultures were prepared as previously described (Elliott-Hunt et al. (2002) J. Neurochem. 80 416-425; Stoppini et al. (1991) J. Neurosci. Methods 37 173-182). Briefly, the hippocampi from 5-6 day old pups were rapidly removed under a dissection microscope and sectioned transversely at 400 μm using a McIlwain tissue chopper (Mickle Laboratory Engineering Co. Ltd., Gomshall, UK). The slices were cultured in 95% air and 5% CO2 at 37° C. on a microporous transmembrane biopore membrane (Millipore, Poole, UK), in a 6-well plate, in 50% minimal essential medium with Earle's Salts (Gibco BRL, Paisley, UK) without L-glutamine, […] Hanks Balanced Salt Solution (Gibco BRL), 25% Horse Serum (heat inactivated; Harlan Serum Labs, Loughborough, UK), 5 mg/ml glucose (Sigma Chemical Co., Poole, UK) and […] glutamine (Sigma).
Fourteen day organotypic hippocampal cultures were placed in 0.1% BSA with serum free media for 16 hours before incubation with varying concentrations of glutamic acid for 3 hours or staurosporine for 9 hours. Staurosporine and glutamate are both known to cause excitotoxic damage to such cell cultures (Prehn et al. (1997) J. Neurochem. 68 1679-1685; Ohmori et al. (1996) Brain Res. 743 109-115). Cultures were washed with serum-free medium and incubated for a further 24 hours before imaging. Regional patterns of neuronal injury in the organotypic cultures were observed by performing experiments in the presence of propidium iodide. After membrane injury, the dye enters cells, binds to nucleic acids and accumulates, rendering the cell brightly fluorescent (Vornov et al. (1994) Stroke 25 457-465). […] Neuronal damage in the area encompassing the CA1 region was assessed using the density slice function in NIH Image software (Scion Image, MD, USA) to establish signal above background. The area of the subfields expressing the exclusion dye propidium iodide was measured, and expressed as a percentage of the total area of the subfields as assessed in the bright field image. Furthermore, for consistency in setting the parameters accurately when using the density slice function, the threshold was set against a positive control set of cultures exposed to 10 mM glutamate.
(SEQ ID NO: 1) (AstraZeneca, Montreal, Quebec, Canada), amyloid-β (1-42) (Aβ (1-42)) and the reverse Aβ (42-1) peptide (American Peptide Company, Sunnyvale, Calif. 93906). Before use in the experiments below, the Aβ (1-42) was induced to form fibrils by pre-incubation in culture medium. Specifically, 0.45 mg of Aβ peptide was dissolved in 20 μl of dimethyl sulfoxide (DMSO-Sigma) and diluted to a 100-μM stock solution in medium, which was then incubated with gentle shaking at room temperature for 24 hours.
To further dissect the neuroprotective role played by galanin in a more tractable in vitro system, both primary dispersed and organotypic hippocampal cultures (Elliott-Hunt, 2002) were used. These two techniques are complimentary since the dispersed hippocampal cultures ensure that observed effects are neuron-specific, whilst the organotypic cultures preserve the synaptic and anatomical organisation of the neuronal circuitry (Elliott-Hunt, 2002) as well as retaining many of the functional characteristics found in vivo (Adamschik et al. (2000) Brain Res. Prot. 5 153-158). The effects of staurosporine and glutamate on neuronal cell death in hippocampal cultures (Prehn, 1997; Ohmori, 1996) were studied. Cell death was visualised by propidium iodide staining. Results are expressed as a percentage of the area expressing fluorescence as compared with the untreated “control” cultures.

Experiment [3] has as its system GALR2. The conditions noted are these: cited from earlier work.
The subject of experiment [4] is organotypic hippocampal cultures. Briefly: Glutamate-induced cell death in organotypic hippocampal cultures (propidium iodide). It counts as cell-based, mouse. The note with it: 4 mM glutamate, 9 hour exposure, n=4. The procedure:
Organotypic cultures were prepared as previously described (Elliott-Hunt et al. (2002) J. Neurochem. 80 416-425; Stoppini et al. (1991) J. Neurosci. Methods 37 173-182). Briefly, the hippocampi from 5-6 day old pups were rapidly removed under a dissection microscope and sectioned transversely at 400 μm using a McIlwain tissue chopper (Mickle Laboratory Engineering Co. Ltd., Gomshall, UK). […]
Staurosporine and glutamate are both known to cause excitotoxic damage to such cell cultures (Prehn et al. (1997) J. Neurochem. 68 1679-1685; Ohmori et al. (1996) Brain Res. 743 109-115). […] Neuronal damage in the area encompassing the CA1 region was assessed using the density slice function in NIH Image software (Scion Image, MD, USA) to establish signal above background. The area of the subfields expressing the exclusion dye propidium iodide was measured, and expressed as a percentage of the total area of the subfields as assessed in the bright field image. […]
To further dissect the neuroprotective role played by galanin in a more tractable in vitro system, both primary dispersed and organotypic hippocampal cultures (Elliott-Hunt, 2002) were used. […] Results are expressed as a percentage of the area expressing fluorescence as compared with the untreated “control” cultures.

Non-standard residues stand in square brackets, D forms with d. Residues, ends and D or L forms follow the SMILES beside them. *: point of attachment. Fmoc = O=C(OCC1c2ccccc2-c2ccccc21)*; Cha = N[C@@H](CC1CCCCC1)C(=O)O; AMC = Cc1cc(=O)oc2cc(N*)ccc12

As to `Cc1cc(=O)oc2cc(NC(=O)[C@H](CCCCN)NC(=O)[C@H](CC3CCCCC3)NC(=O)OCC3c4ccccc4-c4ccccc43)ccc12` [Galnon] (Fmoc-[Cha]-Lys-{AMC}), in experiment [1], the “activation of other GPCR receptors including the neurotensin receptor” value was “also activates a number of other GPCR receptors”; the “agonistic activity at GALR1 and GALR2” value was “equally activates and has agonistic activity to both GALR1 and GALR2”.
With `CN[C@@H]1C[C@H]2O[C@@](C)([C@@H]1OC)n1c3ccccc3c3c4c(c5c6ccccc6n2c5c31)C(=O)NC4` [Staurosporine, staurosporine], the percentage cell death is 65±10% in experiment [2] (100 nM staurosporine, galanin knockout organotypic cultures); 40±26% in experiment [2] (100 nM staurosporine, wild-type organotypic cultures); 68±0.5% in experiment [2] (1 μM staurosporine, galanin knockout organotypic cultures); 38±8% in experiment [2] (1 μM staurosporine, wild-type organotypic cultures).
With WTLNSAGYLL [AR-M1896], the cell death result in experiment [2] (100 nM AR-M1896 co-administered with 100 nM staurosporine, wild-type organotypic cultures, p<0.05) is on record as “significantly reduced the amount of cell death”. The “reduction of staurosporine-induced cell death” value in experiment [2] (galanin knockout organotypic cultures versus wild-type cultures (data not shown)) is recorded as “as effective”. Further, the “effect in the absence of staurosporine” value in experiment [2] (organotypic or primary cultures, no staurosporine) is reported as “No significant effects”. The “binding specificity for GALR2 compared to GALR1” value in experiment [3] was 500 fold.
Turning to `N[C@@H](CCC(=O)O)C(=O)O` [glutamate, L-glutamic acid], the figures for the percentage cell death in experiment [4] (galanin knockout organotypic cultures) and in experiment [4] (wild-type organotypic cultures) were 85±8.6% and 61±9.3%, respectively.
